Data: patent publication US5759995A, “Antiviral treatment” (priority 1996, dated 1998)

Key:
[1] = system: uninfected Vero cells; test: Vero cell growth inhibition (SRB stain); type: cell-based, African Green monkey; conditions: 48 hours
Protocol: The effect of cyclomarin-A on the growth of uninfected Vero cells was examined. Vero cells were grown in RPMI with 5% FBS and passaged twice weekly by trypsinization. These were plated in 96 well sterile tissue culture plates at 2×10^4 cells/well in 200 μl and incubated overnight at 37° C. in a humidified atmosphere with 5% CO2. Cyclomarin-A (10 mg/ml stock solution) was serially diluted (100, 50, 25 and 12.5 μg/ml final concentrations) in 100% DMSO, and added to the cells in a volume of 2 μl. Final DMSO concentration was 1%. Plates were incubated at 37° C. for 48 hours. Cells were fixed by addition of 50% TCA to each well. Plates were incubated at 4° C. for 1 hour. After washing cells with distilled water 0.4% SRB (sulforhodamine B in 1% acetic acid) stain was added to each well. After 25 minutes the stain was washed away with 1% acetic acid and wells were allowed to dry. The remaining stain was resolubilized in 10 mM Tris pH 10.0. Optical density (OD) was determined spectrophotometrically at 650 nm. Percent inhibition of cell growth was calculated based on no drug, vehicle (1% DMSO) control wells as 100%.

[2] = system: HSV-2; test: Combination study with acyclovir using the HSV-2 ELISA assay; type: cell-based, Herpes Simplex virus 2; conditions: cyclomarin-A 0 to 16 μg/ml, acyclovir 0 to 5 μg/ml
Protocol: The ability of cyclomarin-A to inhibit HSV-2 was tested in a culture-based ELISA assay. This assay measures viral glycoprotein inserted into the surface membrane of infected cells, a step in the process of viral replication. Vero cells (African Green monkey kidney cells) were grown in RPMI-1640 medium with L-glutamine (Quality Biological, Gaithersburg, Md.) with 5% fetal bovine serum (FBS) and passaged twice weekly by trypsinization. These were plated in 96-well sterile tissue culture plates at 2×10^4 cells/well. After incubation overnight at 37° C. in a humidified atmosphere with 5% CO2, wells were inoculated with 1000 plaque forming units per well (PFU/well) HSV-2 (MacIntyre strain, ATCC # VR-539), previously titered by plaque assay and stored at -80° C. Virus was absorbed for 1 hour. Cyclomarin-A was diluted to concentrations between 10^-7 g/ml and 10^-4 g/ml in 50% DMSO and added to the cells in a final volume of 1.5 μl with 150 μl RPMI and 1% FBS. […]
Plates were incubated for 1 hour with a rabbit anti-HSV-2 IgG antibody diluted 1:5000 (DAKO, Carpenteria, Calif., catalog #B116), washed with PBS and incubated another hour with an HRP-labeled goat anti-rabbit antibody diluted 1:4000 (DAKO, catalog #PO448). […] OD was measured spectrophotometrically at a wavelength of 450 nm. Percent inhibition of HSV-2 was calculated against an infected, vehicle control (DMSO) with no drug added. […]

[3] = system: HSV-2; test: Multiplicity of infection study using the HSV-2 ELISA assay; type: cell-based, Herpes Simplex virus 2; conditions: 18 hours
Protocol: The ability of cyclomarin-A to inhibit HSV-2 was tested in a culture-based ELISA assay. This assay measures viral glycoprotein inserted into the surface membrane of infected cells, a step in the process of viral replication. Vero cells (African Green monkey kidney cells) were grown in RPMI-1640 medium with L-glutamine (Quality Biological, Gaithersburg, Md.) with 5% fetal bovine serum (FBS) and passaged twice weekly by trypsinization. These were plated in 96-well sterile tissue culture plates at 2×10^4 cells/well. After incubation overnight at 37° C. in a humidified atmosphere with 5% CO2, wells were inoculated with 1000 plaque forming units per well (PFU/well) HSV-2 (MacIntyre strain, ATCC # VR-539), previously titered by plaque assay and stored at -80° C. Virus was absorbed for 1 hour. Cyclomarin-A was diluted to concentrations between 10^-7 g/ml and 10^-4 g/ml in 50% DMSO and added to the cells in a final volume of 1.5 μl with 150 μl RPMI and 1% FBS. The final DMSO concentration was 0.5%. Plates were incubated for 18 hours at 37° C., and fixed with 10% formalin to inactivate the virus.
Plates were incubated for 1 hour with a rabbit anti-HSV-2 IgG antibody diluted 1:5000 (DAKO, Carpenteria, Calif., catalog #B116), washed with PBS and incubated another hour with an HRP-labeled goat anti-rabbit antibody diluted 1:4000 (DAKO, catalog #PO448). After washing with PBS, TMB substrate was added for 15 minutes and reaction was stopped with addition of 1M phosphoric acid. OD was measured spectrophotometrically at a wavelength of 450 nm. Percent inhibition of HSV-2 was calculated against an infected, vehicle control (DMSO) with no drug added.
The effect of multiplicity of virus infection on cyclomarin-A activity was examined using the HSV-2 ELISA assay described in Example 1. Vero cell cultures were inoculated with HSV-2 to a final concentration of 500, 1000, 2500, and 5000 PFU/well. After cyclomarin-A was added to cells in 150 μl RPMI and 1% FBS, cells were incubated for 18 hours at which time the ELISA assay was completed. Percent inhibition of HSV-2 replication was calculated against an infected, vehicle control (DMSO) at the appropriate MOI with no drug added.

**Q.** With COC(c1ccccc1)[C@@H]1NC(=O)[C@H](C)NC(=O)[C@H](CC(C)CO)N(C)C(=O)[C@H](C(O)c2cn(C(C)(C)C3CO3)c3ccccc23)NC(=O)[C@H](C(C)C=C(C)C)NC(=O)[C@H](CC(C)C)N(C)C(=O)[C@H](C(C)C)NC1=O (stereo partly shown) [cyclomarin-A] as the compound, how does the “Percent inhibition of cell growth of uninfected Vero cells” value ([1]; 100 μg/ml) read?
**A.** 27-33%

**Q.** And the “Effect on growth of uninfected Vero cells” value ([1]; concentrations below 50 μg/ml)?
**A.** no effect on cell growth

**Q.** What about the “Interference with acyclovir in combination” value [2] of the same compound?
**A.** no interference with acyclovir

**Q.** What about the “Percent inhibition of HSV-2 replication” value ([3]; 6.25 μg/ml cyclomarin-A, 500 PFU/well) of the same compound?
**A.** 51%

**Q.** And the “Percent inhibition of HSV-2 replication” value ([3]; 6.25 μg/ml cyclomarin-A, 1000 PFU/well)?
**A.** 40%

**Q.** What about the “Percent inhibition of HSV-2 replication” value ([3]; 6.25 μg/ml cyclomarin-A, 2,500 PFU/well) of the same compound?
**A.** 17%

**Q.** And the “Percent inhibition of HSV-2 replication” value ([3]; 6.25 μg/ml cyclomarin-A, 5000 PFU/well)?
**A.** no detectable inhibition
